Measured values reported in patent US11400079B2, “Antibacterial monobactams” (University of Notre Dame du Lac, priority 2017, dated 2022).
≈ marks a conversion by molar mass, not a printed value. Where a name gives a salt, the structure may show the parent alone. Read-outs that look alike come from different tables or passages of the source.

Assays:
[1] = test system: A. baumannii ATCC 17978-PNT-320; experiment: MIC antibacterial assay (iron depleted media); format: cell-based, Acinetobacter baumannii; details: Acinetobacter baumannii, ATCC17978
Description: (§1) General Methods. All solvents and reagents were obtained from commercial sources and used without further purification unless otherwise stated. General methods of purification of compounds involved the use column chromatography with silica gel (230-400 mesh) purchased from Silicycle, Quebec City, Canada. The reactions were monitored by TLC on precoated Merck 60 F254 silica gel plates and visualized using UV light (254 nm).
(§2) Antibacterial assays were performed using iron depleted media as described previously (J. Med. Chem. 2017, 60, 4577).

[2] = test system: A. baumannii ATCC BAA 1793; experiment: MIC antibacterial assay (iron depleted media); format: cell-based, Acinetobacter baumannii; details: Acinetobacter baumannii, BAA1793
Description: as §1, §2

[3] = test system: A. baumannii ARC 5079; experiment: MIC antibacterial assay (iron depleted media); format: cell-based, Acinetobacter baumannii; details: Acinetobacter baumannii, ARC5079
Description: as §1, §2

[4] = test system: A.baumannii ISR14-005; experiment: MIC antibacterial assay (iron depleted media); format: cell-based, Acinetobacter baumannii; details: Acinetobacter baumannii, ISR14005
Description: as §1, §2

[5] = test system: Salmonella typhimurium ATCC13311; experiment: MIC antibacterial assay (iron depleted media); format: cell-based; details: Salmonella enterica
Description: as §1, §2

[6] = test system: Proteus mirabilis X235; experiment: MIC antibacterial assay (iron depleted media); format: cell-based
Description: as §1, §2

[7] = test system: P. aeruginosa ISR-14-003; experiment: MIC antibacterial assay (iron depleted media); format: cell-based; details: Pseudomonas aeruginosa, ISR14003
Description: as §1, §2

[8] = test system: B. dolosa AU0018; experiment: MIC antibacterial assay (iron depleted media); format: cell-based; details: Burkholderia dolosa
Description: as §1, §2

[9] = test system: A. baumannii ATCC17978-PNT-165; experiment: MIC antibacterial assay (iron depleted media); format: cell-based; details: Acinetobacter baumannii
Description: as §1, §2

[10] = test system: Enterobacter aerogenes X816; experiment: MIC antibacterial assay (iron depleted media); format: cell-based; details: Klebsiella aerogenes
Description: as §1, §2

[11] = test system: E. coli DCO; experiment: MIC antibacterial assay (iron depleted media); format: cell-based; details: Escherichia coli
Description: as §1, §2

[12] = test system: P. aeruginosa ISR-14-004; experiment: MIC antibacterial assay (iron depleted media); format: cell-based; details: Pseudomonas aeruginosa, ISR14004
Description: as §1, §2

[13] = test system: P. aeruginosa KW799/wt; experiment: MIC antibacterial assay (iron depleted media); format: cell-based; details: Pseudomonas aeruginosa
Description: as §1, §2

[14] = test system: Citrobacter freuendii ATCC 29063; experiment: MIC antibacterial assay (iron depleted media); format: cell-based; details: ATCC29063
Description: as §1, §2

[15] = test system: S. aureus SG 511; experiment: MIC antibacterial assay (iron depleted media); format: cell-based; details: Staphylococcus aureus, SG511
Description: as §1, §2

[16] = test system: P. aeruginosa 01; experiment: MIC antibacterial assay (iron depleted media); format: cell-based; details: Pseudomonas aeruginosa
Description: as §1, §2

[17] = test system: A. baumannii ATCC 17961; experiment: MIC antibacterial assay (iron depleted media); format: cell-based; details: Acinetobacter baumannii, ATCC17961
Description: as §1, §2

[18] = test system: A. baumannii ATCC BAA 1797; experiment: MIC antibacterial assay (iron depleted media); format: cell-based; details: Acinetobacter baumannii, BAA1797
Description: as §1, §2

[19] = test system: P. aeruginosa ARC 3506; experiment: MIC antibacterial assay (iron depleted media); format: cell-based; details: Pseudomonas aeruginosa, ARC3506
Description: as §1, §2

[20] = test system: strong β-lactamase producing strains of P. aeruginosa (ARC 3502 and ARC 3506); experiment: Antibacterial activity, alone and in combination with tazobactam; format: cell-based; details: co-administration with tazobactam
Description: as §1, §2

[21] = test system: Gram-negative bacteria; experiment: Antibacterial activity against tested Gram-negative strains (summary in words); format: cell-based; details: tested strains of Gram-negative bacteria
Description: as §1, §2

[22] = test system: A. baumannii ATCC BAA 1800; experiment: MIC antibacterial assay (iron depleted media); format: cell-based, Acinetobacter baumannii; details: Acinetobacter baumannii, BAA1800, MH2 broth with 160 μM bipyridyl added
Description: as §1, §2

[23] = test system: P. aeruginosa ARC 3502; experiment: MIC antibacterial assay (iron depleted media); format: cell-based; details: Pseudomonas aeruginosa
Description: as §1, §2

[24] = test system: β-lactamase producing strains of A. baumannii; experiment: Antibacterial activity in combination with tazobactam; format: cell-based, Acinetobacter baumannii; details: combinations with tazobactam
Description: as §1, §2

[25] = A. baumannii ISR14-005 (clinical isolate), compound alone, MH2 broth with 160 μM bipyridyl added, read-out: MIC
[26] = A. baumannii ISR14-005 (clinical isolate), in combination with tazobactam, read-out: MIC (+tazo)
[27] = Salmonella typhimurium ATCC13311, MH2 broth with 160 μM bipyridyl added, read-out: MIC
[28] = Proteus mirabilis X235, MH2 broth with 160 μM bipyridyl added, read-out: MIC
[29] = P. aeruginosa ISR-14-003 (clinical isolate), compound alone, MH2 broth with 160 μM bipyridyl added, read-out: MIC
[30] = P. aeruginosa ISR-14-003 (clinical isolate), in combination with tazobactam, read-out: MIC (+tazo)
[31] = B. dolosa AU0018, MH2 broth with 160 μM bipyridyl added, read-out: MIC
[32] = Enterobacter aerogenes X816, MH2 broth with 160 μM bipyridyl added, read-out: MIC
[33] = E. coli DCO, MH2 broth with 160 μM bipyridyl added, read-out: MIC
[34] = P. aeruginosa ISR-14-004 (clinical isolate), compound alone, MH2 broth with 160 μM bipyridyl added, read-out: MIC
[35] = P. aeruginosa ISR-14-004 (clinical isolate), in combination with tazobactam, read-out: MIC (+tazo)
[36] = P. aeruginosa KW799/wt, MH2 broth with 160 μM bipyridyl added, read-out: MIC
[37] = Citrobacter freuendii ATCC 29063, MH2 broth with 160 μM bipyridyl added, read-out: MIC
[38] = S. aureus SG 511, MH2 broth with 160 μM bipyridyl added, read-out: MIC
[39] = P. aeruginosa 01, MH2 broth with 160 μM bipyridyl added, read-out: MIC

SMILES: CC(C)(O/N=C(\C(=O)NC1C(=O)N(S(=O)(=O)O)[C@H]1CSCCN)c1cnc(N)s1)C(=O)O (mixture of isomers) [Compound 39, (E)-3-(2-(2-aminothiazol-5-yl)-2-(((2-carboxypropan-2-yl)oxy)imino)acetamido)-2-(((2-ammonioethyl)thio)methyl)-4-oxoazetidine-1-sulfonate, potassium salt]
- MIC [1]: > 50 µM
- MIC [2]: 50 µM
- MIC [3]: > 50 µM
- MIC [4]: > 50 µM
- MIC [5]: 4.5 µM
- MIC ([6]; Proteus mirabilis, X235): 3 µM
- MIC [7]: > 50 µM
- MIC ([8]; AU0018): > 50 µM
- MIC [9]: 50 µM
- MIC ([10]; X816): 9.4 µM
- MIC [11]: 6 µM
- MIC [12]: > 50 µM
- MIC ([13]; KW799/WT): > 50 µM
- MIC ([14]; Citrobacter): 3 µM
- MIC [15]: > 50 µM
- MIC [16]; 01: > 50 µM
- MIC [17]: > 50 µM
- MIC [18]: 50 µM
- MIC [19]: > 50 µM
- effect of combination with tazobactam on activity (in words) [20]: no improvement
- antibacterial activity (in words) [21]: generally improved activity

SMILES: CC(C)(O/N=C(\C(=O)NC1C(=O)N(S(=O)(=O)O)C1CSCCNC(=O)CN(CCCCNC(=O)c1cccc(O)c1O)C(=O)c1cccc(O)c1O)c1cnc(N)s1)C(=O)O (racemic) [Compound 42, (E)-2-(((1-(2-Aminothiazol-5-yl)-2-((2-(8-(2,3-dihydroxybenzoyl)-14-(2,3-dihydroxyphenyl)-6,14-dioxo-2-thia-5,8,13-triazatetradecyl)-4-oxo-1-sulfoazetidin-3-yl)amino)-2-oxoethylidene)amino)oxy)-2-methylpropanoic acid]
- MIC [1]: 0.4 µM (≈ 0.364 µg/mL)
- MIC [22]: 0.1 to 0.4 µM (≈ 0.0911 to 0.364 µg/mL)
- MIC [4, 25]: > 50 µM
- MIC [4, 26]: 25 µM
- MIC ([23]; ARC3502, compound alone, MH2 broth with 160 μM bipyridyl added, read-out: MIC): > 50 µM
- MIC ([23]; ARC3502, in combination with tazobactam, plus some growth at 50, clear between 1.6-50, read-out: MIC (+tazo)): 1.6 µM
- MIC [5, 27]: 0.025 µM (≈ 0.0228 µg/mL)
- MIC [6, 28]: < 0.025 µM
- MIC [7, 29]: 1.6 µM (≈ 1.46 µg/mL)
- MIC [7, 30]: 1.6 µM
- MIC [8, 31]: > 50 µM
- MIC [9]: 0.4 µM (≈ 0.364 µg/mL)
- MIC [10, 32]: 0.075 µM (≈ 0.0683 µg/mL)
- MIC [11, 33]: < 0.025 µM
- MIC [12, 34]: 6 µM (≈ 5.47 µg/mL)
- MIC [12, 35]: 3 µM
- MIC [13, 36]: 0.4 µM (≈ 0.364 µg/mL)
- MIC [14, 37]: 0.05 µM (≈ 0.0455 µg/mL)
- MIC [15, 38]: > 50 µM
- MIC [16, 39]: 0.4 µM (≈ 0.364 µg/mL)
- MIC ([17]; A. baumannii ATCC 17961, MH2 broth with 160 μM bipyridyl added, read-out: MIC): 0.2 µM (≈ 0.182 µg/mL)
- MIC ([18]; A. baumannii ATCC BAA 1797, MH2 broth with 160 μM bipyridyl added, read-out: MIC): 0.4 µM (≈ 0.364 µg/mL)
- MIC ([19]; P. aeruginosa ARC 3506, compound alone, MH2 broth with 160 μM bipyridyl added, read-out: MIC): > 50 µM
- effect of combination with tazobactam on activity (in words) [20]: most improved activity
- effect of combination with tazobactam on activity (in words) [24]: most enhancement of activity
- antibacterial activity (in words) [21]: remarkably potent

SMILES: C[C@H]1[C@H](NC(=O)/C(=N\OC(C)(C)C(=O)O)c2csc(N)n2)C(=O)N1S(=O)(=O)O [Aztreonam, aztreonam, reference compound]
- MIC [1]: 50 µM (≈ 21.8 µg/mL)
- MIC ([3]; A. baumannii ARC 5079, compound alone, MH2 broth with 160 μM bipyridyl added, read-out: MIC): 25 to 50 µM (≈ 10.9 to 21.8 µg/mL)
- MIC [4, 25]: > 50 µM
- MIC [4, 26]: 50 µM
- MIC [5, 27]: 0.1 µM (≈ 0.0435 µg/mL)
- MIC [6, 28]: 0.05 µM (≈ 0.0218 µg/mL)
- MIC [7, 29]: 6 µM (≈ 2.61 µg/mL)
- MIC [7, 30]: 3 µM
- MIC [8, 31]: > 50 µM
- MIC [9]: 12.5 µM (≈ 5.44 µg/mL)
- MIC [10, 32]: 0.2 µM (≈ 0.0871 µg/mL)
- MIC [11, 33]: 0.1 µM (≈ 0.0435 µg/mL)
- MIC [12, 34]: 50 µM (≈ 21.8 µg/mL)
- MIC [12, 35]: 0.4 µM
- MIC [13, 36]: 1.6 µM (≈ 0.697 µg/mL)
- MIC [14, 37]: 0.1 µM (≈ 0.0435 µg/mL)
- MIC [15, 38]: > 50 µM
- MIC [16, 39]: 3 µM (≈ 1.31 µg/mL)
- effect of combination with tazobactam on activity (in words) [20]: minimal effects
